# Data from patent publication US20230414778A1, “COMBINATION OF ANTIBODY-DRUG CONJUGATE WITH ANTI-SIRPalpha ANTIBODY” (DAIICHI SANKYO COMPANY, LIMITED, priority 2020, published 2023).
# Key:
# [1] = system: CT26.WT-reactive T cells in mouse spleen cells; experiment: ELISPOT analysis of IFNγ-producing spleen cells; type: in vivo
# Experimental: The number of CT26.WT-reactive T cells in mouse spleen cells was determined by Murine IFNγ Single-Color Enzymatic ELISPOT Assay (manufactured by […] TECHNOLOGY LIMITED), more specifically, counting of the number of IFNγ spots produced from individual spleen cells. From each of the mice used in Example 3, the spleen was harvested and the number of spleen cells was adjusted to be 1.0×10^6 cells/mL by use of CTL test medium. CT26.WT cells were treated with 10 μg/mL mitomycin C for 2 hours and washed. Thereafter, the cells were collected, adjusted to be 1.0×10^6 cells/mL by CTL test medium, and used as an antigen. The spleen cells and the antigen were added each in an amount of 100 μL/well in a PVDF-membrane plate pre-coated with an anti-IFNγ antibody and co-cultured at 37° C. for 24 hours. Thereafter, the color was developed using the attached antibody and coloring reagent and the number of IFNγ-producing spleen cells was determined. Comparison between the NCD cell inoculation group and compound (A) or MTX treatment group was made in accordance with the Wilcoxon rank sum test. P value was expressed to four decimal places and the results satisfying P<0.05 (two-sided test) were determined as being significant.
# [2] = molecular target: T1, Topoisomerase I (Homo sapiens, UniProt P11387); conditions: Ogitani Y. et al., Clinical Cancer Research 2016; cited from earlier work
# T1 sequence (P11387 1-765): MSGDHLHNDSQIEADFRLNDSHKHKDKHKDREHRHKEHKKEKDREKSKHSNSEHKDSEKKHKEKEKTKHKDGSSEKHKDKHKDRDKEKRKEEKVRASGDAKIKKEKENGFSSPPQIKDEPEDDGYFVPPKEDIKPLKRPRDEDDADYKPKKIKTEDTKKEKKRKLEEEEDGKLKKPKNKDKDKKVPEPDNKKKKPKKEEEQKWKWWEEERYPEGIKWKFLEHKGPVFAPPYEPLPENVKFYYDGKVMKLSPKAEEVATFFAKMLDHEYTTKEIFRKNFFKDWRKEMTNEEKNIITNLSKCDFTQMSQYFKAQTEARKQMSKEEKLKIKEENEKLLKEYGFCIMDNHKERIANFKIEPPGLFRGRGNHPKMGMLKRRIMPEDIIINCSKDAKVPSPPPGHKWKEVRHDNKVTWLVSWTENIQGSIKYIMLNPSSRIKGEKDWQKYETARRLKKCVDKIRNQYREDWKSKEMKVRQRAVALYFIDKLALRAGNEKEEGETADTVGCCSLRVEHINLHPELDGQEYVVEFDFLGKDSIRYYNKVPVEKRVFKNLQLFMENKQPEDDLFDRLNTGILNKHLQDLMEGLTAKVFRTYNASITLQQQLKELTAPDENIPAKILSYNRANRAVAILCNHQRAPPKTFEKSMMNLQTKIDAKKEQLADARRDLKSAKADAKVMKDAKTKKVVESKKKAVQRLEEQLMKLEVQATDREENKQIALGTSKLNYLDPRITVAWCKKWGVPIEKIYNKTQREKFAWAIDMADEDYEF
# [3] = drug-treated CT26.WT cells inoculated, anti-SIRPα antibody (5C12) administration
structure (smiles),measurement,setting,value
CC[C@@]1(O)C(=O)OCc2c1cc1n(c2=O)Cc2c-1nc1cc(F)c(C)c3c1c2[C@@H](NC(=O)CO)CC3 [compound (A)],antigen specific T cell induction compared to the MTX treatment group,"[1]; ELISPOT, spleen cells",tendency to further enhance
same,number of IFNγ-producing spleen cells compared to NCD_PBS,"[1]; drug-treated CT26.WT cells inoculated, PBS administration",tendency to increase
same,number of IFNγ-producing spleen cells compared to NCD_PBS,[1]; [3],significantly increased
same,number of IFNγ-producing spleen cells compared to compound (A) PBS group,[1]; [3],significantly increased
same,topoisomerase I inhibitory effect,[2],TpoI inhibitor
